Measurements published in ChEMBL document CHEMBL1201862, “PubChem BioAssay data set” (2004).
Calls of active or inactive are those of the source.

Legend:
[1] = molecular target: Protein disulfide-isomerase (Homo sapiens, UniProt P07237); experiment: PDI inhibitors, insulin turbidity readout, confirmation, biochemical, dry powder samples, set 2 (AID 652146)
[2] = molecular target: T1, Small ubiquitin-related modifier 1 (Homo sapiens, UniProt P63165); experiment: inhibitors of SUMO1 peptide binding, dose response, biochemical, fluorescence polarization, uHTS hits (AID 624382); type: functional; conditions: read-out: IC50_Mean
[3] = molecular target: T2, Small ubiquitin-related modifier 2 (Homo sapiens, UniProt P61956); experiment: inhibitors of SUMO2 protein-protein interaction, dose response, selectivity assay for SUMO1 interaction inhibitor project, biochemical, FRET, human SUMO2, uHTS hits (AID 624384); type: functional; conditions: read-out: IC50_Mean
[4] = molecular target: DNA (cytosine-5)-methyltransferase 1 (Homo sapiens, UniProt P26358); experiment: DNMT1 methyltransferase inhibitors, confirmation, biochemical, fluorescent molecular beacon (AID 602386); type: functional
[5] = HeLa cell cytotoxicity, dose response, cytotoxicity control for MgcRacGAP inhibitor project (AID 624300); type: functional
[6] = molecular target: T2, Small ubiquitin-related modifier 2; experiment: SUMO2–SIM peptide binding inhibitors, dose response, selectivity assay for SUMO1 interaction inhibitor project, biochemical, fluorescence polarization, uHTS hits (AID 624385); type: functional; conditions: read-out: IC50_Mean
Beta-galactosidase = Beta-galactosidase (Escherichia coli, UniProt Q8VNN2); experiment: beta-galactosidase enzyme inhibitors and activators, dose response, artefact control for CCR6 antagonist project, biochemical, E. coli enzyme, set 3 (AID 504712); type: functional
[7] = molecular target: T3, Carboxy-terminal domain RNA polymerase II polypeptide A small phosphatase 1 (Homo sapiens, UniProt Q9GZU7); experiment: inhibitors of CTDSP1, concentration-response testing, biochemical assay, absorbance-based, actives from ultra-high-throughput screening (AID 540297); type: functional
T3 sequence (Q9GZU7 whole entry): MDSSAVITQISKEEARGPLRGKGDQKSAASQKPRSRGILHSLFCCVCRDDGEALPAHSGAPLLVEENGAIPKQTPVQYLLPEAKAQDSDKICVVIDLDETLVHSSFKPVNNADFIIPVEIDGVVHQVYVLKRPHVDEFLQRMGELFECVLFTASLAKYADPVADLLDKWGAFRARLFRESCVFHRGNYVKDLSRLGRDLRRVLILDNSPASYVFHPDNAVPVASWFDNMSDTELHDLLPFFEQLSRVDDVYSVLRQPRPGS

[8] = molecular target: T4, Rac GTPase-activating protein 1 (Homo sapiens, UniProt Q9H0H5); experiment: MgcRacGAP GTPase-activating activity inhibitors, confirmation, biochemical, ADP Hunter fluorescence, primary and confirmatory (AID 624330); type: functional
T4 sequence (Q9H0H5 whole entry): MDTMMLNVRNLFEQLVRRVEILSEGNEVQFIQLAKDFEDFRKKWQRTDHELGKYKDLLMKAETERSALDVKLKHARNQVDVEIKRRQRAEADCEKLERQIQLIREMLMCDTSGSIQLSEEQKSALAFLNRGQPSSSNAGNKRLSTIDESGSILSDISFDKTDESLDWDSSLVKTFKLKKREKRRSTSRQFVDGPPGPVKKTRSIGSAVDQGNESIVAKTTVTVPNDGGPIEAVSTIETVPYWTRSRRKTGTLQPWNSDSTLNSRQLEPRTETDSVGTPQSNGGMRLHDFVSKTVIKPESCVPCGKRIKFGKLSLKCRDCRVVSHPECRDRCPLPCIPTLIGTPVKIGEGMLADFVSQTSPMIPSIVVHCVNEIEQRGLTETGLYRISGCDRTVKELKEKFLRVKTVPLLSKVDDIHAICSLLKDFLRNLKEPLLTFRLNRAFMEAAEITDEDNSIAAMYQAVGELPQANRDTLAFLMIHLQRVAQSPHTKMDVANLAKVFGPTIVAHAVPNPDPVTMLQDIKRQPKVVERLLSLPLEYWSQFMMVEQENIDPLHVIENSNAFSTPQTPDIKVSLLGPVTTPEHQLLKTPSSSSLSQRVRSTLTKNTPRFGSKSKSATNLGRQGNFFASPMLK

[9] = molecular target: T1, Small ubiquitin-related modifier 1; experiment: inhibitors of SUMO1 partner interactions, dose response, biochemical, FRET (AID 624383); type: functional; conditions: read-out: IC50_Mean
[10] = molecular target: Disintegrin and metalloproteinase domain-containing protein 17 (Homo sapiens, UniProt P78536); experiment: exosite inhibitors of ADAM17, dose response, biochemical (AID 743260)
[11] = ADAM10 protease inhibitors, dose response, selectivity assay for ADAM17 exosite inhibitor project, biochemical, FRET peptide substrate, recombinant human ADAM10 (AID 743259);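 further: ADAM10 enzyme cleaving a FRET peptide substrate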
[12] = LGR2 antagonists, dose response, cell-based, HEK293, CRE-luciferase reporter, cherry pick, set 2 (AID 743343); type: functional;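 further: transfected cells were stimulated with diluted bursicon conditioned medium after compound addition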
[13] = MC4R antagonists, dose response, counter-screen for LGR2 antagonist project, cell-based, plate reader, cherry pick (AID 743444); type: functional;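 further: transfected HEK 293 cells stimulated with alpha-MSH peptide; potency of inhibitors of the alpha-MSH evoked signal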
[14] = A549 cell cytotoxicity, dose response, cytotoxicity control, plate reader, cherry-pick, antagonist series (AID 743412); type: functional, cell-based
[15] = intracellular Trypanosoma cruzi inhibitors in host cells – cell-based, plate reader, cherry-pick samples, set 3, dose response (AID 651818); type: functional;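 further: compounds incubated with infected cells for about four days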
[16] = HepG2 cell cytotoxicity, dose response, cytotoxicity control, plate reader, cherry-pick, antagonist series (AID 743416); type: functional, cell-based
[17] = HEK293 cell cytotoxicity, dose response, cytotoxicity control, plate reader, cherry-picked samples (AID 743446); type: functional, cell-based
cells [18] = type: functional, cell-based
cells [19] = type: functional, cell-based; remark: listed apart in the source
[20] = molecular target: T5, Scavenger receptor class B member 1 (Mus musculus, UniProt Q61009); experiment: inhibitors of SR-BI dependent HDL uptake, dose response, ldlA[mSR-BI] CHO cells, fluorescence plate reader, dry powder, set 9 (AID 623880); type: functional, cell-based
T5 sequence (Q61009 whole entry): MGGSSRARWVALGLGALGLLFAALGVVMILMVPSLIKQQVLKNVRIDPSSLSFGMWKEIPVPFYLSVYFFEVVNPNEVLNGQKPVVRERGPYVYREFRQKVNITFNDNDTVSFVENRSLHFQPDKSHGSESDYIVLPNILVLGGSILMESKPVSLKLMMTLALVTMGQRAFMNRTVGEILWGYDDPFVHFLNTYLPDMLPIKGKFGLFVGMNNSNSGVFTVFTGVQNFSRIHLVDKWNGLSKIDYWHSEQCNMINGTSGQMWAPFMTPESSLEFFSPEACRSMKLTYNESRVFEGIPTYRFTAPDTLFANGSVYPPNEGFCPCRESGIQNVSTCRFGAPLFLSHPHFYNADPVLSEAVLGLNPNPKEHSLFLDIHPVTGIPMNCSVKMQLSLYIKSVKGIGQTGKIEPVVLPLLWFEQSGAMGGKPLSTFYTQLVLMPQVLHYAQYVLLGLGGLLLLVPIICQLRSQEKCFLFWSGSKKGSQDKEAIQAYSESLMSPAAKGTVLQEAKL

[21] = molecular target: T5, Scavenger receptor class B member 1; experiment: inhibitors of SR-BI-mediated HDL uptake, dose response, cell-based, ldlA[mSR-BI] CHO, DiI fluorescence, dry powder, set 10 (AID 624029); type: functional
Beta-lactamase [22] = molecular target: T6, Beta-lactamase (Pseudomonas aeruginosa, UniProt Q79MP6); experiment: […] counterscreen for selective VIM-2 inhibitors: dose response biochemical high throughput screening assay to identify inhibitors of IMP-1 metallo-beta-lactamase.
Beta-lactamase [23] = molecular target: Beta-lactamase (Salmonella choleraesuis (strain SC-B67), UniProt Q5J463); experiment: Epi-absorbance-based counterscreen for selective VIM-2 inhibitors: dose response biochemical high throughput screening assay to identify inhibitors of TEM-1 serine-beta-lactamase.
Beta Lactamase [24] = molecular target: T7, Beta Lactamase (Pseudomonas aeruginosa, UniProt Q932Y6); experiment: VIM-2 inhibitor FRET-based artefact check, dose response, artefact control for selective VIM-2 inhibitor project, biochemical, FRET readout, CCF2 substrate (AID 1926)
Beta-lactamase [25] = molecular target: T6, Beta-lactamase; experiment: IMP-1 metallo-beta-lactamase inhibitors, dose response, selectivity assay for VIM-2 inhibitor project, biochemical, epi-absorbance (AID 1920)
Beta Lactamase [26] = molecular target: T7, Beta Lactamase; experiment: VIM-2 metallo-beta-lactamase inhibitor potency, dose response, biochemical, epi-absorbance readout, selective inhibitors (AID 1919)
Protein Wnt-3a = Protein Wnt-3a (Mus musculus, UniProt P27467); experiment: Wnt3a-driven reporter signaling inhibition, dose response, selectivity assay for Gli-SUFU antagonist project, Wnt-LIGHT cells, luminescence (AID 651570); type: functional; conditions: read-out: IC50_Mean;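 further: Wnt-LIGHT reporter cells stimulated with conditioned medium from Wnt3a-producing cells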
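Wherever EC50 is given: agonist potency from rise in intracellular calcium fluorescence.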

Sequence of Protein disulfide-isomerase (P07237 whole entry): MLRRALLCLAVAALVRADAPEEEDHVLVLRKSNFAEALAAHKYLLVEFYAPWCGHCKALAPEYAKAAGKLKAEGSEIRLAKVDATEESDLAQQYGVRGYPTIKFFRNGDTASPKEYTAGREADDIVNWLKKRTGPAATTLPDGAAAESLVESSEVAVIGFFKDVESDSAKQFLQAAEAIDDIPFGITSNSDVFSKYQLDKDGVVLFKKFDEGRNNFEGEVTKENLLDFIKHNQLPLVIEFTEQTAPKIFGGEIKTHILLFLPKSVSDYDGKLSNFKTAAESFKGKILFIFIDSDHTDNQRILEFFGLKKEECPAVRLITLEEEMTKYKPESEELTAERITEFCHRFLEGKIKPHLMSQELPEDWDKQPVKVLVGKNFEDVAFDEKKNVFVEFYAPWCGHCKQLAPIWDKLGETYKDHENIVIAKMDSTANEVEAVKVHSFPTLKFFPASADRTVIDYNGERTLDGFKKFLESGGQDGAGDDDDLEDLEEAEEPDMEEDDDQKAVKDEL
T6 sequence (Q79MP6 whole entry): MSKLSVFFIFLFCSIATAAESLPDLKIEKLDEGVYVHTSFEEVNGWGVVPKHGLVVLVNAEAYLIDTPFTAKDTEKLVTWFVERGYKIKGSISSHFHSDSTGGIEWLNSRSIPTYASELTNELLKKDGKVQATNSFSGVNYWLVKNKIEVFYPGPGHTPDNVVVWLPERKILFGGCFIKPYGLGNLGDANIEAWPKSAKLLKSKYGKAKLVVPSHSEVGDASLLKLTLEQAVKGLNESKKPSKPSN
T1 sequence (P63165 whole entry): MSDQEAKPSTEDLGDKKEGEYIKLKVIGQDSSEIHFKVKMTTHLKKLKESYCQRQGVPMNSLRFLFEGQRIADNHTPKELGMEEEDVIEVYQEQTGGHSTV
T7 sequence (Q932Y6 whole entry): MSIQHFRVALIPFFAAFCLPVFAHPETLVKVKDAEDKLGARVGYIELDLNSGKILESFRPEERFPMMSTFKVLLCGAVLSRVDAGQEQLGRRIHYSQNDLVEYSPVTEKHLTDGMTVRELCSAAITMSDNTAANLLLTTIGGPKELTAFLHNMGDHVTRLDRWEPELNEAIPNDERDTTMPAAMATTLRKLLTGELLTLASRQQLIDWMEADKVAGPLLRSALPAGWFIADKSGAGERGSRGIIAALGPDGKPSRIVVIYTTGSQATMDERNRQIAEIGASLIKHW
T2 sequence (P61956 whole entry): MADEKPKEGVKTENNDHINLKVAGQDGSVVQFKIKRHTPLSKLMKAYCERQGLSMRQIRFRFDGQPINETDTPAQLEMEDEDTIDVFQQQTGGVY
Sequence of Protein Wnt-3a (P27467 whole entry): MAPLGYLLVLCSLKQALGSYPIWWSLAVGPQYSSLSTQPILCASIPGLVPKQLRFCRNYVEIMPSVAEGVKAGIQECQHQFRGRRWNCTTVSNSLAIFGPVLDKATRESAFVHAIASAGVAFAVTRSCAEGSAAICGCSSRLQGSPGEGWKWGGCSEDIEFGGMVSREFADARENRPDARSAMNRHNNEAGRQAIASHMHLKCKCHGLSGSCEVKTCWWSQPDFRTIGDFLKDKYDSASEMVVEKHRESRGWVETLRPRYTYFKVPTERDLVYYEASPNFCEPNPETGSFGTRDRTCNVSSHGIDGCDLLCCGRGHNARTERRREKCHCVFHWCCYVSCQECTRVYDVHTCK
Sequence of Beta-lactamase (Salmonella choleraesuis (strain SC-B67), UniProt Q5J463) (Q5J463 whole entry): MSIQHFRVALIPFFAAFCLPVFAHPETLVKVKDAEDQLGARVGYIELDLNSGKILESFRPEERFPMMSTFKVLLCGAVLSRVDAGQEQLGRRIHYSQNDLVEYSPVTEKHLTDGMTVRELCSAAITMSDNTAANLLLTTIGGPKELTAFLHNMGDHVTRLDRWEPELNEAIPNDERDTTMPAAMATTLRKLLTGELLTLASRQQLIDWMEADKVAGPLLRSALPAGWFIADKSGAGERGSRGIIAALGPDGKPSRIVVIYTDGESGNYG
Sequence of Beta-galactosidase (Q8VNN2 whole entry, the tested form may be a part): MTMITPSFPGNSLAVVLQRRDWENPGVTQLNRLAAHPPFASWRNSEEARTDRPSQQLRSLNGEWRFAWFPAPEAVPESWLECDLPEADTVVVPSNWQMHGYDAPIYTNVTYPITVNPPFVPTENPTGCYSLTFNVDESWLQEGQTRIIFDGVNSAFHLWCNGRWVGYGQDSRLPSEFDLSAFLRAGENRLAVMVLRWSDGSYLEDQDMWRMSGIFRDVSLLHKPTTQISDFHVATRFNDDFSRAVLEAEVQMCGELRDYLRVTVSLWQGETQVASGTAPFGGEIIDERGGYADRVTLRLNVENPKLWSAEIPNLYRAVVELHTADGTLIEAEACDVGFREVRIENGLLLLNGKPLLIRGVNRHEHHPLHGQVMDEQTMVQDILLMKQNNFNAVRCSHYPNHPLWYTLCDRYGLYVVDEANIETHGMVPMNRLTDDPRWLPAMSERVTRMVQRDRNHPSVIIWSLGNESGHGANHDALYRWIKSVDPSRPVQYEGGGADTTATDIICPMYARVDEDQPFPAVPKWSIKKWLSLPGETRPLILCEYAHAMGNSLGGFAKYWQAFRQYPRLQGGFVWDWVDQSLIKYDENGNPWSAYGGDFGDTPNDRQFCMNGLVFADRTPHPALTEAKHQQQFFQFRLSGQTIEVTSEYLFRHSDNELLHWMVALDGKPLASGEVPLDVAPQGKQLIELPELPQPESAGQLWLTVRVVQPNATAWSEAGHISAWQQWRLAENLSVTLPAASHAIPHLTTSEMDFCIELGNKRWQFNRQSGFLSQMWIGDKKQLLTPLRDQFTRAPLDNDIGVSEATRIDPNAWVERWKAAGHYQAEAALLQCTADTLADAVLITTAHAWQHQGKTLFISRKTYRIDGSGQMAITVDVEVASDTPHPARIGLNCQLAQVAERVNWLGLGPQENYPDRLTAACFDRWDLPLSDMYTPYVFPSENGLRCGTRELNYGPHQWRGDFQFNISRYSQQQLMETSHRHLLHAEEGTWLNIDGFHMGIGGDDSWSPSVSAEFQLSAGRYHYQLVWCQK
Sequence of Disintegrin and metalloproteinase domain-containing protein 17 (P78536 whole entry, the tested form may be a part): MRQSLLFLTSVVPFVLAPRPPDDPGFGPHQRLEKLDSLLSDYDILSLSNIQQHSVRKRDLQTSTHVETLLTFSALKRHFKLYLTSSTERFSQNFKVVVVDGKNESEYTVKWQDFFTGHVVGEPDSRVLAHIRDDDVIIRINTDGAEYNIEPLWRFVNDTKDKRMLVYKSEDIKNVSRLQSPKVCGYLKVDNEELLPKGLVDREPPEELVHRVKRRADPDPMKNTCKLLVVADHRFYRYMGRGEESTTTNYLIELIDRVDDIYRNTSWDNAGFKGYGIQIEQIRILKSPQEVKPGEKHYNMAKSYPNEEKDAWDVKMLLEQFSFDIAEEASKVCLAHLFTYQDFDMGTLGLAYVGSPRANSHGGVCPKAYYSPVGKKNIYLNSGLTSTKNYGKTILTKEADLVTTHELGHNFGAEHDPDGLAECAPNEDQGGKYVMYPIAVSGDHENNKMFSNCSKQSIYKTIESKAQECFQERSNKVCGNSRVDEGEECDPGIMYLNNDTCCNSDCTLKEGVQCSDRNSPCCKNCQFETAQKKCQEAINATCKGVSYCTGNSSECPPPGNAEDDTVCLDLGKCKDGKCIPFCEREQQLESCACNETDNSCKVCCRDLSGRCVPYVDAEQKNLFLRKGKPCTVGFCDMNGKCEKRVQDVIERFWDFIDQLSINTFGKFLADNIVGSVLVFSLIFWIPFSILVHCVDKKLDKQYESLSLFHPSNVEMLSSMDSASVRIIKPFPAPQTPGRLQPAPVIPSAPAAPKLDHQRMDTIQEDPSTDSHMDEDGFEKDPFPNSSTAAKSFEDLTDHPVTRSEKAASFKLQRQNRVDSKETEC

C=CCOc1ccc(CN2CCC(CCOc3ccccc3)(C(=O)NC3CCCC3)CC2)cc1Cl
AC50 [1]: > 30 µM (inactive)

C=CCOc1ccc(C=NNc2ccc(S(=O)(=O)Nc3ccccc3C(=O)O)cc2[N+](=O)[O-])cc1OC
IC50 [2]: 14 µM (active)
IC50 [3]: > 66 µM (inactive)
IC50 [4]: 5.32 µM (active)
CC50 [5]: 100 µM (active)
IC50 [6]: 17.1 µM (active)
IC50 (Beta-galactosidase): > 66.6 µM (inactive)
IC50 [7]: 2 µM (active)
IC50 [8]: 65.6 µM (active)
IC50 [9]: 51.2 µM (inactive)

CCC(c1nnnn1Cc1ccccc1)N1CCC2(CC1)C(=O)NCN2c1ccccc1 (centres undefined)
IC50 [10]: > 69.4 µM (inactive)
IC50 [11]: > 69.4 µM (inactive)

COc1ccc(CN(C)C[C@@H]2Oc3c(NC(=O)Nc4ccc(C(F)(F)F)cc4)cccc3C(=O)N([C@@H](C)CO)C[C@H]2C)cc1
AC50 [12]: 16.6 µM (active)
AC50 [13]: 11 µM (active)
AC50 [14]: 13.6 µM (active)
AC50 [15]: 2.27 µM (active)
AC50 [16]: 7.95 µM (active)
AC50 [17]: 3.5 µM (active)

O=C(N1CCCC1)C1(CCOc2ccccc2)CCN(Cc2ccc(O)c(Cl)c2)CC1
AC50 [1]: > 30 µM (inactive)

CC(C)Cn1c(O)cc(=O)nc1SCC(=O)N1CCc2ccccc2C1
IC50 (cells [18]): > 29.9 µM (inactive)
EC50 (cells [19]): > 29.9 µM (inactive)

C[C@@H]1CN([C@H](C)CO)C(=O)c2cc(NC(=O)C3CCCCC3)ccc2O[C@H]1CN(C)C(=O)c1ccc(Cl)cc1
AC50 [20]: 38.9 µM (active)
AC50 [21]: > 70 µM (inactive)

COc1cc(OC)c(OC)cc1/C=N/NC(=O)CC1C(=O)NN=C1C (centres undefined)
IC50 (Beta-lactamase [22]): > 59.6 µM (inactive)
IC50 (Beta-lactamase [23]): > 59.6 µM (inactive)
IC50 (Beta Lactamase [24]): 1.46 µM (active)
IC50 (Beta-lactamase [25]): > 59.6 µM (inactive)
IC50 (Beta Lactamase [26]): 4.22 µM (active)

O=C(C[C@H]1C/C=C\C[C@@H](NC(=O)OCC2c3ccccc3-c3ccccc32)C(=O)O[C@@H](c2ccccc2)CNC1=O)N[C@H](CO)Cc1ccccc1
IC50 (Protein Wnt-3a): 20.8 µM (inactive)
